Source: PubChem BioAssay (NCI)
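The concentration for 50% growth inhibition is given as GI50. TGI is the concentration that stops growth completely.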

Legend:
Experiment in all cases: DTP human tumour cell line panel, 384-well format
[1] = test system: NCI-H522 lung
[2] = test system: OVCAR-3 ovarian
[3] = test system: MALME-3M melanoma
[4] = test system: SF-268 CNS
[5] = test system: MOLT-4 leukemia
[6] = test system: CCRF-CEM leukemia
[7] = test system: PC-3 prostate
[8] = test system: SK-OV-3 ovarian
[9] = test system: ACHN renal
[10] = test system: OVCAR-5 ovarian
[11] = test system: M14 melanoma
[12] = test system: NCI-H322M lung
[13] = test system: HOP-92 NSCLC
[14] = test system: MDA-MB-435 melanoma
[15] = test system: SR leukemia
[16] = test system: HCC-2998 colon
[17] = test system: CAKI-1 renal
[18] = test system: SNB-75 CNS
[19] = test system: A549 NSCLC
[20] = test system: SNB-19 CNS
[21] = test system: HL-60(TB) leukemia
[22] = test system: UO-31 renal
[23] = test system: K-562 leukemia
[24] = test system: NCI/ADR-RES ovarian
[25] = test system: COLO 205 colon
[26] = test system: NCI-H226 lung
[27] = test system: UACC-257 melanoma
[28] = test system: A498 renal
[29] = test system: SF-295 CNS
[30] = test system: OVCAR-4 ovarian
[31] = test system: SK-MEL-5 melanoma
[32] = test system: SN12C renal
[33] = test system: RPMI-8226 leukemia
[34] = test system: MDA-MB-468 breast
[35] = test system: LOX IMVI melanoma
[36] = test system: IGROV1 ovarian
[37] = test system: NCI-H23 lung
[38] = test system: T-47D breast
[39] = test system: SK-MEL-28 melanoma
[40] = test system: SF-539 CNS
[41] = test system: HCT-15 colon
[42] = test system: HOP-62 NSCLC
[43] = test system: KM12 colon
[44] = test system: HS 578T breast
[45] = test system: MDA-MB-231 breast
[46] = test system: RXF 393 renal
[47] = test system: UACC-62 melanoma
[48] = test system: NCI-H460 NSCLC
[49] = test system: BT-549 breast
[50] = test system: DU-145 prostate
[51] = test system: OVCAR-8 ovarian
[52] = test system: MCF7 breast
[53] = test system: 786-0 renal
[54] = test system: SW-620 colon
[55] = test system: U251 glioblastoma
[56] = test system: HT29 colon
[57] = test system: EKVX NSCLC
[58] = test system: TK-10 renal
[59] = test system: HCT-116 colon

CC(CN(C)C)S(=O)(=O)c1ccc(-c2cnc(N)c(C(=O)Nc3ccccc3)n2)cc1 (configuration not stated)
GI50 [1]: 10.3 µM | TGI [1]: 22.3 µM | GI50 [2]: 3.04 µM | TGI [2]: 14.2 µM | GI50 [3]: 1.81 µM | TGI [3]: 5.29 µM | GI50 [4]: 3.49 µM | TGI [4]: 12.4 µM | GI50 [5]: 0.515 µM | TGI [5]: 1.62 µM | GI50 [6]: 0.519 µM | TGI [6]: 1.66 µM | GI50 [7]: 5.52 µM | TGI [7]: 24.4 µM | GI50 [8]: 2.18 µM | TGI [8]: 13.1 µM | GI50 [9]: 0.979 µM | TGI [9]: 7.41 µM | GI50 [10]: 3.84 µM | TGI [10]: 14 µM | GI50 [11]: 1.73 µM | TGI [11]: 10.7 µM | GI50 [12]: 1.1 µM | TGI [12]: 15.5 µM | GI50 [13]: 1.4 µM | TGI [13]: 10.8 µM | GI50 [14]: 3.82 µM | TGI [14]: 16.1 µM | GI50 [15]: 0.385 µM | TGI [15]: 1.4 µM | GI50 [16]: 0.314 µM | TGI [16]: 0.937 µM | GI50 [17]: 2.77 µM | TGI [17]: 14.7 µM | GI50 [18]: 9.27 µM | TGI [18]: > 100 µM | GI50 [19]: 2.17 µM | TGI [19]: 27.5 µM | GI50 [20]: 4.56 µM | TGI [20]: 18.5 µM | GI50 [21]: 1.49 µM | TGI [21]: 2.83 µM | GI50 [22]: 3.64 µM | TGI [22]: > 100 µM | GI50 [23]: 1.89 µM | TGI [23]: 3.53 µM | GI50 [24]: 3.11 µM | TGI [24]: 15.1 µM | GI50 [25]: 2.25 µM | TGI [25]: 5.9 µM | GI50 [26]: 3.25 µM | TGI [26]: 12.9 µM | GI50 [27]: 1.73 µM | TGI [27]: 3.35 µM | GI50 [28]: 0.343 µM | TGI [28]: 1.35 µM | GI50 [29]: 2.85 µM | TGI [29]: 9.55 µM | GI50 [30]: 1.13 µM | TGI [30]: 4.19 µM | GI50 [31]: 2.27 µM | TGI [31]: 6.06 µM | GI50 [32]: 5.15 µM | TGI [32]: 20 µM | GI50 [33]: 1.56 µM | TGI [33]: 4.48 µM | GI50 [34]: 0.412 µM | TGI [34]: 1.34 µM | GI50 [35]: 2.48 µM | TGI [35]: 11.5 µM | GI50 [36]: 1.99 µM | TGI [36]: 5.27 µM | GI50 [37]: 1.07 µM | TGI [37]: 4.51 µM | GI50 [38]: 9.82 µM | TGI [38]: 22.2 µM | GI50 [39]: 2.39 µM | TGI [39]: 6.47 µM | GI50 [40]: 1.14 µM | TGI [40]: 2.62 µM | GI50 [41]: 1.03 µM | TGI [41]: 2.43 µM | GI50 [42]: 2.3 µM | TGI [42]: 14.1 µM | GI50 [43]: 2.79 µM | TGI [43]: 12.3 µM | GI50 [44]: 0.837 µM | TGI [44]: 3.17 µM | GI50 [45]: 12.9 µM | TGI [45]: 36.3 µM | GI50 [46]: 2.03 µM | TGI [46]: 10.7 µM | GI50 [47]: 2.14 µM | TGI [47]: 9.84 µM | GI50 [48]: 0.696 µM | TGI [48]: 6.72 µM | GI50 [49]: 0.556 µM | TGI [49]: 2.69 µM | GI50 [50]: 2.9 µM | TGI [50]: 13.4 µM | GI50 [51]: 3.82 µM | TGI [51]: 14.9 µM | GI50 [52]: 0.844 µM | TGI [52]: 13.4 µM | GI50 [53]: 0.753 µM | TGI [53]: 2.66 µM | GI50 [54]: 1.71 µM | TGI [54]: 3.25 µM | GI50 [55]: 2.51 µM | TGI [55]: 12.1 µM | GI50 [56]: 1.61 µM | TGI [56]: 3.69 µM | GI50 [57]: 8.14 µM | TGI [57]: 31.3 µM | GI50 [58]: 0.993 µM | TGI [58]: 7.61 µM

c1cc(CN2CCCNCCNCCCNCC2)ccc1CN1CCCNCCNCCCNCC1
GI50 [1]: > 100 µM | TGI [1]: > 100 µM | GI50 [2]: > 100 µM | TGI [2]: > 100 µM | GI50 [3]: > 100 µM | TGI [3]: > 100 µM | GI50 [4]: > 100 µM | TGI [4]: > 100 µM | GI50 [5]: > 100 µM | TGI [5]: > 100 µM | GI50 [6]: > 100 µM | TGI [6]: > 100 µM | GI50 [7]: > 100 µM | TGI [7]: > 100 µM | GI50 [8]: > 100 µM | TGI [8]: > 100 µM | GI50 [9]: > 100 µM | TGI [9]: > 100 µM | GI50 [10]: > 100 µM | TGI [10]: > 100 µM | GI50 [11]: > 100 µM | TGI [11]: > 100 µM | GI50 [12]: > 100 µM | TGI [12]: > 100 µM | GI50 [13]: > 100 µM | TGI [13]: > 100 µM | GI50 [14]: > 100 µM | TGI [14]: > 100 µM | GI50 [15]: > 100 µM | TGI [15]: > 100 µM | GI50 [16]: > 100 µM | TGI [16]: > 100 µM | GI50 [17]: > 100 µM | TGI [17]: > 100 µM | GI50 [18]: > 100 µM | TGI [18]: > 100 µM | GI50 [19]: > 100 µM | TGI [19]: > 100 µM | GI50 [20]: > 100 µM | TGI [20]: > 100 µM | GI50 [21]: > 100 µM | TGI [21]: > 100 µM | GI50 [22]: > 100 µM | TGI [22]: > 100 µM | GI50 [24]: > 100 µM | TGI [24]: > 100 µM | GI50 [25]: > 100 µM | TGI [25]: > 100 µM | GI50 [26]: > 100 µM | TGI [26]: > 100 µM | GI50 [27]: > 100 µM | TGI [27]: > 100 µM | GI50 [28]: > 100 µM | TGI [28]: > 100 µM | GI50 [29]: > 100 µM | TGI [29]: > 100 µM | GI50 [30]: > 100 µM | TGI [30]: > 100 µM | GI50 [31]: > 100 µM | TGI [31]: > 100 µM | GI50 [32]: > 100 µM | TGI [32]: > 100 µM | GI50 [33]: > 100 µM | TGI [33]: > 100 µM | GI50 [34]: > 100 µM | TGI [34]: > 100 µM | GI50 [35]: > 100 µM | TGI [35]: > 100 µM | GI50 [36]: > 100 µM | TGI [36]: > 100 µM | GI50 [59]: > 100 µM | TGI [59]: > 100 µM | GI50 [37]: > 100 µM | TGI [37]: > 100 µM | GI50 [38]: > 100 µM | TGI [38]: > 100 µM | GI50 [39]: > 100 µM | TGI [39]: > 100 µM | GI50 [40]: > 100 µM | TGI [40]: > 100 µM | GI50 [41]: > 100 µM | TGI [41]: > 100 µM | GI50 [42]: > 100 µM | TGI [42]: > 100 µM | GI50 [43]: > 100 µM | TGI [43]: > 100 µM | GI50 [44]: > 100 µM | TGI [44]: > 100 µM | GI50 [45]: > 100 µM | TGI [45]: > 100 µM | GI50 [46]: > 100 µM | TGI [46]: > 100 µM | GI50 [47]: > 100 µM | TGI [47]: > 100 µM | GI50 [48]: > 100 µM | TGI [48]: > 100 µM | GI50 [49]: > 100 µM | TGI [49]: > 100 µM | GI50 [50]: > 100 µM | TGI [50]: > 100 µM | GI50 [51]: > 100 µM | TGI [51]: > 100 µM | GI50 [52]: > 100 µM | TGI [52]: > 100 µM | GI50 [53]: > 100 µM | TGI [53]: > 100 µM | GI50 [54]: > 100 µM | TGI [54]: > 100 µM | GI50 [55]: > 100 µM | TGI [55]: > 100 µM | GI50 [56]: > 100 µM | TGI [56]: > 100 µM | GI50 [57]: > 100 µM | TGI [57]: > 100 µM | GI50 [58]: > 100 µM | TGI [58]: > 100 µM
